Values quoted from earlier work in article PMC3518266 (Chemistry & biology, 2010).

Biological target: hevamine
Details: competitive inhibition of hevamine; ref Vaaje-Kolstad et al., 2004; cited from earlier work

In the case of `CC(=O)N[C@H]1[C@H](O[C@H]2[C@@H](O)[C@@H](NC(C)=O)[C@H](O[C@H]3[C@H](O)[C@H]4N=C(N(C)C)O[C@H]4[C@@H]3CO)O[C@@H]2CO)O[C@H](CO)[C@@H](O)[C@H]1O` [allosamidin], the Ki is listed as 3.1 µM.
